# According to US20080085867A1, “Early detection and prognosis of colon cancers” (The Johns Hopkins University, priority 2006, published 2008):
# Key:
# [1] = tested on: HCT116 cells; experiment: Microarray gene expression of drug-treated cells versus mock-treated cells; format: cell-based, human; details: for expression response of the 11 hypermethylated guide genes: 300 nM TSA 18 hours or 5 μM DAC 96 hours
# Procedure: Cell culture and treatment. HCT116 cells and isogenic genetic knockout derivatives were maintained as previously described (Rhee et al^1). For drug treatments, log phase HCT116 cells were cultured in McCoys 5A media (Invitrogen) containing 10% BCS and 1× penicillin/streptomycin with 5 μM 5-aza-deoxycytidine (DAC) (Sigma; stock solution: 1 mM in PBS) for 96 hours, replacing media and DAC every 24 hours. Cell treatment with 300 nM Trichostatin A (Sigma; stock solution: 1.5 mM dissolved in Ethanol) was performed for 18 hours. Control cells underwent mock treatment in parallel with addition of equal volume of PBS without drugs.
# Microarray analysis. Total RNA was harvested from log phase cells using the Qiagen kit according to the manufacturers instructions, including a DNAase step. RNA was quantified using the Nanoprop ND-100 followed by quality assessment with 2100 Bioanalyzer (Agilent Technologies). RNA concentrations for individual samples were greater than 200 ng/ul, with 28 s/18 s ratios greater than 2.2 and RNA integrity numbers of 10. Sample amplification and labeling procedures were carried out using the Low RNA Input Fluorescent Linear Amplification Kit (Agilent Technologies) according to the manufacturers instructions. The labeled cRNA was purified using the RNeasy mini kit (Qiagen) and quantified. RNA spike-in controls (Agilent Technologies) were added to RNA samples before amplification. 0.75 microgram of samples labeled with Cy3 or Cy5 were mixed with control targets (Agilent Technologies), assembled on Oligo Microarray, hybridized, and processed according to the Agilent microarray protocol. Scanning was performed with the Agilent G2565BA microarray scanner under default settings recommended by Agilent Technologies.
# Data analysis. All arrays were subject to quality checks recommended by the manufacturer. […] The log ratio of red signal to green signal was calculated after background-subtraction and LoEss normalization as implemented in the limma package from Bioconductor (Smyth et al. 1; Smyth et al. 2). […]
# [2] = tested on: colorectal cell lines; experiment: RT-PCR re-expression of Neuralized and FOXL2 in colorectal cancer cell lines; format: cell-based, human; details: DAC treatment, panel of colorectal cell lines
# Procedure: Cell culture and treatment. HCT116 cells and isogenic genetic knockout derivatives were maintained as previously described (Rhee et al^1). For drug treatments, log phase HCT116 cells were cultured in McCoys 5A media (Invitrogen) containing 10% BCS and 1× penicillin/streptomycin with 5 μM 5-aza-deoxycytidine (DAC) (Sigma; stock solution: 1 mM in PBS) for 96 hours, replacing media and DAC every 24 hours. Cell treatment with 300 nM Trichostatin A (Sigma; stock solution: 1.5 mM dissolved in Ethanol) was performed for 18 hours. Control cells underwent mock treatment in parallel with addition of equal volume of PBS without drugs. Methylation and gene expression analysis. RNA was isolated with TRIzolTM Reagent (Invitrogen) according to the manufacturer's instructions. For reverse transcription-PCR (RT-PCR), 1 μg of total RNA was reverse transcribed by using Ready-To-GoTM You-Prime First-Strand Beads (Amersham Biosciences) with addition of random hexamers (0.2 μg per reaction). […] For MSP analysis, DNA was extracted following a standard phenol-chloroform extraction method. Bisulfite modification of genomic DNA was carried out using the EZ DNA methylation KitTM (Zymo Research). […] MSP was performed as previously described (Herman et al.). […]
SMILES,expression response of the 11 hypermethylated guide genes [1],"DAC induced expression for genes in the TSA non-response zone ([1]; 5 μM DAC, 96 hours)",re-expression of hypermethylated Neuralized and FOXL2 genes [2]
"Nc1ncn([C@H]2C[C@H](O)[C@@H](CO)O2)c(=O)n1 [DAC, 5-aza-deoxycytidine]","four (SFRP1, TFF2, TFF3, and CHFR) demonstrated re-expression responses near the top",> 2 fold,ability to re-express the genes
"CC(/C=C/C(=O)NO)=C\[C@@H](C)C(=O)c1ccc(N(C)C)cc1 [TSA, Trichostatin A]",remained within the TSA non-responsive zone,,
